The text below walks through data of US7585859B2, “PDE4B inhibitors and uses therefor” (Plexxikon, Inc., priority 2004, dated 2009).

Where two headings read alike, the source gives them in different places.

Assay [1] has as its target T1, PDE4B: The catalytic domain of human PDE4B from S152-S528 (Homo sapiens, UniProt Q07343).
T1 construct: His6 (N); thrombin cleavage site (N); made in house; host or cells: E. coli
The experiment in a line: PDE4 IC50 determination by Scintillation Proximity Assay, PDE4B. Format: biochemical. The procedure, abridged: (§1)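 Scintillation counts reflected [^3H]AMP captured on yttrium silicate SPA beads after enzyme hydrolysed [^3H]cAMP for 30 min at 30°. PDE4B was used at 80 ng/ml and PDE4D at 4 ng/ml. IC50 values came from non-linear regression.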
A general note: In a scintillation proximity assay essentially only radioactivity close to the scintillant gives light.

Another assay deals with T2, PDE4D (Homo sapiens, UniProt Q08499).
T2 construct: PDE4D: The catalytic domain of human PDE4B from S3 16-V692; His6 (N); thrombin cleavage site (N); made in house; host or cells: E. coli
T2 sequence (Q08499 380-756): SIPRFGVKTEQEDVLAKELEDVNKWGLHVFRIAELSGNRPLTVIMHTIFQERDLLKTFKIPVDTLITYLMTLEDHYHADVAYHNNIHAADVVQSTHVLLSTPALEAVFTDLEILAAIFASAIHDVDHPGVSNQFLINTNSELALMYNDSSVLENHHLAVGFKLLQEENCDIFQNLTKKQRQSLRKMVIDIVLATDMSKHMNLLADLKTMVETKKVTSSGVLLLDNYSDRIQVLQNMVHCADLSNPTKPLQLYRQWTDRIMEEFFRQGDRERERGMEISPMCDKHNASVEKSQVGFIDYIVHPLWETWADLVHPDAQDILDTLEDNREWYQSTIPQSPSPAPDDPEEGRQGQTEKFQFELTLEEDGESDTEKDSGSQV
The experiment in a line: PDE4 IC50 determination by Scintillation Proximity Assay, PDE4D. Format: biochemical. The procedure, abridged:
as §1

The mark [2] stands for this setting: first part of Table 2B (2-1 to 2-22), read-out: IC 50 vs. indicated assay PDE4B.
[3] abbreviates: first part of Table 2B (2-1 to 2-22), read-out: IC 50 vs. indicated assay PDE4D.
The mark [4] stands for this setting: second part of Table 2B (2-23 to 2-103), column 3, column is PDE4B in first part, read-out: IC 50 vs. indicated assay h TNFα.
Setting [5] is: second part of Table 2B (2-23 to 2-103), column 5, column is PDE4D in first part, read-out: IC 50 vs. indicated assay h TNFα.

T1 sequence (Q07343 with tags, fused parts or gaps): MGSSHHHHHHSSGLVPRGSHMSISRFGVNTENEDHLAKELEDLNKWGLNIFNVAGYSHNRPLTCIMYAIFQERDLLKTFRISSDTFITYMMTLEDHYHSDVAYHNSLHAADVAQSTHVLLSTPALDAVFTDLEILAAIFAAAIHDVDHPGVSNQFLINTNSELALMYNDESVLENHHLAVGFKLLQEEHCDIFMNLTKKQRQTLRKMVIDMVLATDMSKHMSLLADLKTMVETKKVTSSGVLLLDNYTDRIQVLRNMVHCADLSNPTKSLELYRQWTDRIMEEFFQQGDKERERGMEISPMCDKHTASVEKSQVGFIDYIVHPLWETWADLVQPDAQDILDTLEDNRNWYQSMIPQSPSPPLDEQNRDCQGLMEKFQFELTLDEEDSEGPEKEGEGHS

Take `Cc1c(C(=O)c2sc(NC3CCCC3)nc2N)cnn1-c1ccccc1` [Compound 2-21, (4-Amino-2-cyclopentylamino-thiazol-5-yl)-(5-methyl-1-phenyl-1H-pyrazol-4-yl)-methanone]: the IC50 (in assay [1] (setting [2]); at PDE4D (setting [3])) was below 10 µM throughout.

Consider `Cc1nc(-c2cnccn2)sc1C(=O)c1sc(NC2CCCC2)nc1N` [Compound 2-22, (4-Amino-2-cyclopentylamino-thiazol-5-yl)-(4-methyl-2-pyrazin-2-yl-thiazol-5-yl)-methanone], for which the IC50 (in assay [1] (setting [2]); at PDE4D (setting [3])) was below 10 µM throughout.

Consider `Nc1nc(Nc2ccc(Cl)cc2)sc1C(=O)c1cccc([N+](=O)[O-])c1` [Compound 2-24, [4-Amino-2-(4-chloro-phenylamino)-thiazol-5-yl]-(3-nitro-phenyl)-methanone], for which the IC50 (in assay [1] (setting [4]); at PDE4D (setting [5])) was below 10 µM each time.

Turning to `Nc1nc(Nc2ccccc2)sc1C(=O)c1ccccc1` [Compound 2-25, (4-Amino-2-phenylamino-thiazol-5-yl)-phenyl-methanone], the IC50 (in assay [1] (setting [4]); at PDE4D (setting [5])) was below 10 µM in each case.

Take `Nc1nc(Nc2ccc(Cl)cc2)sc1C(=O)c1ccccc1` [Compound 2-26, [4-Amino-2-(4-chloro-phenylamino)-thiazol-5-yl]-phenyl-methanone]: the IC50 (in assay [1] (setting [4]); at PDE4D (setting [5])) was below 10 µM each time.

For `Nc1nc(Nc2ccc(Cl)cc2)sc1C(=O)c1ccc(Br)cc1` [Compound 2-27, [4-Amino-2-(4-chloro-phenylamino)-thiazol-5-yl]-(4-bromo-phenyl)-methanone], the IC50 (in assay [1] (setting [4]); on PDE4D (setting [5])) was below 10 µM in each case.

With `Nc1nc(Nc2ccc(F)cc2)sc1C(=O)c1ccc(F)cc1` [Compound 2-28, [4-Amino-2-(4-fluoro-phenylamino)-thiazol-5-yl]-(4-fluoro-phenyl)-methanone], the IC50 (in assay [1] (setting [4]); at PDE4D (setting [5])) was below 10 µM each time.

`Nc1nc(Nc2ccccc2Cl)sc1C(=O)c1ccccc1` [Compound 2-29, [4-Amino-2-(2-chloro-phenylamino)-thiazol-5-yl]-phenyl-methanone]: the IC50 (in assay [1] (setting [4]); at PDE4D (setting [5])) was below 10 µM in each case.

As for `COc1ccc(C(=O)c2sc(Nc3ccccc3)nc2N)cc1OC` [Compound 2-31, (4-Amino-2-phenylamino-thiazol-5-yl)-(3,4-dimethoxy-phenyl)-methanone], the IC50 (in assay [1] (setting [4]); at PDE4D (setting [5])) was below 10 µM each time.

On to `Nc1nc(Nc2cc(Cl)ccc2Cl)sc1C(=O)c1ccccc1` [Compound 2-32, [4-Amino-2-(2,5-dichloro-phenylamino)-thiazol-5-yl]-phenyl-methanone], for which the IC50 (in assay [1] (setting [4]); on PDE4D (setting [5])) was below 10 µM each time.

`Nc1nc(Nc2cccc(C(=O)O)c2)sc1C(=O)c1ccccc1` [Compound 2-36, 3-(4-Amino-5-benzoyl-thiazol-2-ylamino)-benzoic acid]: the IC50 (in assay [1] (setting [4]); at PDE4D (setting [5])) was below 10 µM each time.

On to `COc1ccc(C(=O)c2sc(Nc3ccccc3)nc2N)cc1` [Compound 2-37, (4-Amino-2-phenylamino-thiazol-5-yl)-(4-methoxy-phenyl)-methanone], for which the IC50 (in assay [1] (setting [4]); at PDE4D (setting [5])) was below 10 µM throughout.

Regarding `COc1ccc(Nc2nc(N)c(C(=O)c3ccccc3)s2)cc1` [Compound 2-39, [4-Amino-2-(4-methoxy-phenylamino)-thiazol-5-yl]-phenyl-methanone], the IC50 (in assay [1] (setting [4]); at PDE4D (setting [5])) was below 10 µM each time.

With `Nc1nc(Nc2c(Cl)cccc2Cl)sc1C(=O)c1ccc(OC(F)F)cc1` [Compound 2-42, [4-Amino-2-(2,6-dichloro-phenylamino)-thiazol-5-yl]-(4-difluoromethoxy-phenyl)-methanone], the IC50 (in assay [1] (setting [4]); at PDE4D (setting [5])) was below 10 µM throughout.

`Nc1nc(Nc2c(Cl)cc(Cl)cc2Cl)sc1C(=O)c1ccccc1` [Compound 2-43, [4-Amino-2-(2,4,6-trichloro-phenylamino)-thiazol-5-yl]-phenyl-methanone]: the figures for the IC50 (in assay [1] (setting [4]); at PDE4D (setting [5])) were below 10 µM and above 10 µM, respectively.
